In the assay the test system is indomethacin-induced bleeding gastric ulcer. As to the kind of experiment: indomethacin-induced bleeding gastric ulcer model using male rats. The format is in vivo, rat. The settings on record: 1 mg/kg single dose tail vein, mean ± SD. On the procedure: In order to evaluate the efficacy of fexuprazan against bleeding gastric ulcers, an indomethacin-induced bleeding gastric ulcer model using male rats was used.
Specifically, the previously prepared 1-(5-(2,4-difluorophenyl)-1-((3-fluorophenyl)sulfonyl)-4-methoxy-1H-pyrrol-3-yl)-N-methylmethanamine (hereinafter referred to as ‘fexuprazan’) hydrochloride was dissolved in a solution containing 30 wt. % of polyethylene glycol (Polyethylene Glycol 400) polymer in physiological saline. The concentration was adjusted so that 0, 0.1, 0.5, 1, 2 mg/kg based on fexuprazan weight could be administered to each test animal in a liquid volume of 1 mL/kg, and then each test animal was administered through the tail vein as a single dose. In addition, 1 mg/kg of esomeprazole magnesium trihydrate, which is a positive control, based on esomeprazole weight was administered as a single dose through the tail vein in test animals. After 30 minutes, 80 mg/kg of indomethacin was orally administered as a single dose to each test animal to induce gastric bleeding and ulceration. An autopsy was performed 5 hours after administration of indomethacin, and the stomach was removed. Then, the ulcer index (%) was measured using an image program (Leica Application Suite V4), and gastric hemorrhage and erosion state were evaluated through histopathological examination.

Take `COc1ccc2nc([S@@+]([O-])Cc3ncc(C)c(OC)c3C)[nH]c2c1` [Esomeprazole, esomeprazole magnesium trihydrate, reference compound]: the “Ulcer index (%)” value (30 min before indomethacin 80 mg/kg oral, autopsy 5 h) turned out to be 6.1 ± 2.6 %. Besides, where the note is “histopathological examination”, the Gastric erosion state was 2.0 ± 1.8 and the Gastric hemorrhage state is reported as 1.3 ± 1.6^.
